What was measured:
MCF-7 Tam1 [1] = experiment: relative IC50 (midpoint of fitted logistic curve, plateau may be below 50% inhibition; CellTiter-Glo viability); higher = less potent; details: 4-OH-tamoxifen in medium 1 µM; 72 h
Method in brief: (§1)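 Breast cancer cell lines and their resistant derivatives were seeded into 384-well plates holding FO2Baq library drugs at five concentrations spanning a 10 000-fold range. Resistant lines were in medium with 1 μM of the selecting drug. Cells were incubated 72 h at 37 °C, and CellTiter-Glo viability was read on a PHERAstar and normalised to vehicle-only and positive controls. Drug sensitivity score, relative IC50 (curve midpoint) and top-dose inhibition came from logistic dose–response fits (Breeze pipeline).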

ZR-75-1 [2] = experiment: as above; details: 72 h
Method in brief: as §1

BT-474 Tam1 [3] = experiment: as above; details: 4-OH-tamoxifen in medium 1 µM; 72 h
Method in brief: as §1

MCF-7 [4] = experiment: as above; details: 72 h
Method in brief: as §1

BT-474 Tam2 [5] = experiment: as above; details: 4-OH-tamoxifen in medium 1 µM; 72 h
Method in brief: as §1

T-47D Tam1 [6] = experiment: as above; details: 4-OH-tamoxifen in medium 1 µM; 72 h
Method in brief: as §1

BT-474 [7] = experiment: as above; details: 72 h
Method in brief: as §1

T-47D [8] = experiment: as above; details: 72 h
Method in brief: as §1

ZR-75-1 Tam1 [9] = experiment: as above; details: 4-OH-tamoxifen in medium 1 µM; 72 h
Method in brief: as §1

ZR-75-1 Tam2 [10] = experiment: as above; details: 4-OH-tamoxifen in medium 1 µM; 72 h
Method in brief: as §1

T-47D Tam2 [11] = experiment: as above; details: 4-OH-tamoxifen in medium 1 µM; 72 h
Method in brief: as §1

MCF-7 Tam1 [12] = experiment: drug sensitivity score (DSS) (DSS (dimensionless)); higher = more sensitive; extreme values may be limits of the assay; details: 4-OH-tamoxifen in medium 1 µM; 72 h
Method in brief: as §1

ZR-75-1 [13] = experiment: as above; details: 72 h
Method in brief: as §1

BT-474 Tam1 [14] = experiment: as above; details: 4-OH-tamoxifen in medium 1 µM; 72 h
Method in brief: as §1

MCF-7 [15] = experiment: as above; details: 72 h
Method in brief: as §1

BT-474 Tam2 [16] = experiment: as above; details: 4-OH-tamoxifen in medium 1 µM; 72 h
Method in brief: as §1

T-47D Tam1 [17] = experiment: as above; details: 4-OH-tamoxifen in medium 1 µM; 72 h
Method in brief: as §1

BT-474 [18] = experiment: as above; details: 72 h
Method in brief: as §1

T-47D [19] = experiment: as above; details: 72 h
Method in brief: as §1

ZR-75-1 Tam1 [20] = experiment: as above; details: 4-OH-tamoxifen in medium 1 µM; 72 h
Method in brief: as §1

ZR-75-1 Tam2 [21] = experiment: as above; details: 4-OH-tamoxifen in medium 1 µM; 72 h
Method in brief: as §1

T-47D Tam2 [22] = experiment: as above; details: 4-OH-tamoxifen in medium 1 µM; 72 h
Method in brief: as §1

| relative IC50 (MCF-7 Tam1 [1]) | relative IC50 (BT-474 Tam1 [3]) | relative IC50 (MCF-7 [4]; 4-OH-tamoxifen in medium 1 µM) | relative IC50 (BT-474 Tam2 [5]) | relative IC50 (T-47D Tam1 [6]) | relative IC50 (BT-474 [7]; 4-OH-tamoxifen in medium 0 µM) | relative IC50 (BT-474 [7]; 4-OH-tamoxifen in medium 1 µM) | relative IC50 (T-47D [8]; 4-OH-tamoxifen in medium 0 µM) | relative IC50 (T-47D [8]; 4-OH-tamoxifen in medium 1 µM) | relative IC50 (T-47D Tam2 [11]) | relative IC50 (MCF-7 [4]; 4-OH-tamoxifen in medium 0 µM) | SMILES | relative IC50 (ZR-75-1 [2]; 4-OH-tamoxifen in medium 0 µM) | relative IC50 (ZR-75-1 [2]; 4-OH-tamoxifen in medium 1 µM) | relative IC50 (ZR-75-1 Tam1 [9]) | relative IC50 (ZR-75-1 Tam2 [10]) | drug sensitivity score (MCF-7 Tam1 [12]) | drug sensitivity score (ZR-75-1 [13]; 4-OH-tamoxifen in medium 0 µM) | drug sensitivity score (ZR-75-1 [13]; 4-OH-tamoxifen in medium 1 µM) | drug sensitivity score (BT-474 Tam1 [14]) | drug sensitivity score (MCF-7 [15]; 4-OH-tamoxifen in medium 0 µM) | drug sensitivity score (MCF-7 [15]; 4-OH-tamoxifen in medium 1 µM) | drug sensitivity score (BT-474 Tam2 [16]) | drug sensitivity score (T-47D Tam1 [17]) | drug sensitivity score (BT-474 [18]; 4-OH-tamoxifen in medium 0 µM) | drug sensitivity score (BT-474 [18]; 4-OH-tamoxifen in medium 1 µM) | drug sensitivity score (T-47D [19]; 4-OH-tamoxifen in medium 0 µM) | drug sensitivity score (T-47D [19]; 4-OH-tamoxifen in medium 1 µM) | drug sensitivity score (ZR-75-1 Tam1 [20]) | drug sensitivity score (ZR-75-1 Tam2 [21]) | drug sensitivity score (T-47D Tam2 [22]) |
| --- | --- | --- | --- | --- | --- | --- | --- | --- | --- | --- | --- | --- | --- | --- | --- | --- | --- | --- | --- | --- | --- | --- | --- | --- | --- | --- | --- | --- | --- | --- |
| > 5500 nM | > 5500 nM | > 5500 nM | > 5500 nM | > 5500 nM | > 5500 nM | > 5500 nM | > 5500 nM | > 5500 nM | > 5500 nM | – | CCNC(=O)CCC/C=C\C[C@@H]1[C@@H](/C=C/[C@@H](O)CCc2ccccc2)[C@H](O)C[C@@H]1O [Bimatoprost] | > 5500 nM | > 5500 nM | > 5500 nM | > 5500 nM | 0 | 0 | 0 | 0 | 0 | 0 | 0 | 0 | 0 | 0 | 0 | 0.0302 | 0 | 0 | 0 |
| 39.9 nM | 3.55 nM | 44.5 nM | 5.98 nM | 2.79 nM | 12.7 nM | 3.72 nM | 6.27 nM | 8.31 nM | 5.5 nM | 6.82 nM | CC(C)C[C@H](NC(=O)[C@H](Cc1ccccc1)NC(=O)c1cnccn1)B(O)O [Bortezomib] | 73.1 nM | 31.4 nM | 20.1 nM | 8.96 nM | 11.3 | 9.65 | 10.7 | 29.5 | 19.9 | 14 | 26.7 | 30.4 | 13.2 | 29.1 | 25.6 | 23.7 | 13.9 | 16.4 | 26.5 |
| 1230 nM | 1350 nM | 622 nM | 1400 nM | 687 nM | 1730 nM | 870 nM | 931 nM | 1520 nM | 1090 nM | 561 nM | Nc1cc(C(F)(F)F)c(-c2cc(N3CCOCC3)nc(N3CCOCC3)n2)cn1 [Buparlisib (BKM-120)] | 990 nM | 931 nM | 710 nM | 963 nM | 4.41 | 6.24 | 5.88 | 9.32 | 10.8 | 9.9 | 8.94 | 9.5 | 5.66 | 11.1 | 9.27 | 7.4 | 7.01 | 7.44 | 8.09 |
| > 100000 nM | > 100000 nM | – | > 100000 nM | > 100000 nM | > 100000 nM | – | > 100000 nM | > 100000 nM | > 100000 nM | > 100000 nM | CS(=O)(=O)OCCCCOS(C)(=O)=O [Busulfan] | > 100000 nM | > 100000 nM | > 100000 nM | > 100000 nM | 0 | 0 | 0 | 0 | 0 | 0.0038 | 0 | 0 | 0 | 0 | 0 | 0 | 0 | 0 | 0 |
| 3520 nM | 680 nM | 1540 nM | 1130 nM | 656 nM | 1190 nM | 137 nM | 1190 nM | 803 nM | 1180 nM | 1720 nM | C#Cc1cccc(Nc2ncnc3cc(OC)c(OCCCCCCC(=O)NO)cc23)c1 [CUDC-101] | 1600 nM | 1920 nM | 1150 nM | 1740 nM | 2.26 | 3.69 | 4.14 | 12.6 | 7.91 | 8.89 | 10.2 | 11.7 | 9.66 | 21.9 | 10.3 | 12.3 | 4.08 | 4.71 | 8.37 |
| > 10000 nM | > 10000 nM | > 10000 nM | > 10000 nM | > 10000 nM | > 10000 nM | > 10000 nM | > 10000 nM | > 10000 nM | > 10000 nM | > 10000 nM | O=C(O)C1(C(=O)O)CCC1.[NH2-].[NH2-].[Pt+2] [Carboplatin] | > 10000 nM | > 10000 nM | > 10000 nM | > 10000 nM | 0 | 0 | 0 | 0 | 0 | 0 | 0 | 0 | 0 | 0 | 0 | 0 | 0 | 0 | 0 |

| SMILES | relative IC50 (MCF-7 Tam1 [1]) | relative IC50 (BT-474 Tam1 [3]) | relative IC50 (MCF-7 [4]; 4-OH-tamoxifen in medium 1 µM) | relative IC50 (BT-474 Tam2 [5]) | relative IC50 (T-47D Tam1 [6]) | relative IC50 (BT-474 [7]; 4-OH-tamoxifen in medium 0 µM) | relative IC50 (BT-474 [7]; 4-OH-tamoxifen in medium 1 µM) | relative IC50 (T-47D [8]; 4-OH-tamoxifen in medium 0 µM) | relative IC50 (T-47D [8]; 4-OH-tamoxifen in medium 1 µM) | relative IC50 (T-47D Tam2 [11]) | relative IC50 (MCF-7 [4]; 4-OH-tamoxifen in medium 0 µM) | relative IC50 (ZR-75-1 [2]; 4-OH-tamoxifen in medium 0 µM) | relative IC50 (ZR-75-1 [2]; 4-OH-tamoxifen in medium 1 µM) | relative IC50 (ZR-75-1 Tam1 [9]) | relative IC50 (ZR-75-1 Tam2 [10]) | drug sensitivity score (MCF-7 Tam1 [12]) | drug sensitivity score (ZR-75-1 [13]; 4-OH-tamoxifen in medium 0 µM) | drug sensitivity score (ZR-75-1 [13]; 4-OH-tamoxifen in medium 1 µM) | drug sensitivity score (BT-474 Tam1 [14]) | drug sensitivity score (MCF-7 [15]; 4-OH-tamoxifen in medium 0 µM) | drug sensitivity score (MCF-7 [15]; 4-OH-tamoxifen in medium 1 µM) | drug sensitivity score (BT-474 Tam2 [16]) | drug sensitivity score (T-47D Tam1 [17]) | drug sensitivity score (BT-474 [18]; 4-OH-tamoxifen in medium 0 µM) | drug sensitivity score (BT-474 [18]; 4-OH-tamoxifen in medium 1 µM) | drug sensitivity score (T-47D [19]; 4-OH-tamoxifen in medium 0 µM) | drug sensitivity score (T-47D [19]; 4-OH-tamoxifen in medium 1 µM) | drug sensitivity score (ZR-75-1 Tam1 [20]) | drug sensitivity score (ZR-75-1 Tam2 [21]) | drug sensitivity score (T-47D Tam2 [22]) |
| --- | --- | --- | --- | --- | --- | --- | --- | --- | --- | --- | --- | --- | --- | --- | --- | --- | --- | --- | --- | --- | --- | --- | --- | --- | --- | --- | --- | --- | --- | --- |
| CC[C@@]1(O)C(=O)OCc2c1cc1n(c2=O)Cc2cc3ccccc3nc2-1 [Camptothecin] | 1350 nM | > 5000 nM | 649 nM | > 5000 nM | 32.6 nM | > 5000 nM | > 5000 nM | 44.2 nM | – | 302 nM | 32.6 nM | 38.4 nM | 95.6 nM | 49.7 nM | 59.8 nM | 3 | 13.9 | 7.82 | 0 | 23 | 8.74 | 0 | 15.6 | 0 | 0 | 15.6 | 3.21 | 12.4 | 13.3 | 4.93 |
